This experiment addresses T1, CGRP receptor (SK-N-MC cell membranes) (Homo sapiens, UniProt O60894+Q16602).
T1 construct: endogenous in cells; host or cells: SK-N-MC cells (membrane homogenate)
The experiment can be described thus: CGRP Binding Assay ([125I]-CGRP radioligand binding, SK-N-MC homogenate). The settings on record: displacement of [125I]-CGRP, SK-N-MC homogenate; read-out: CGRP binding IC50.
T1 sequence (Q16602 23-461): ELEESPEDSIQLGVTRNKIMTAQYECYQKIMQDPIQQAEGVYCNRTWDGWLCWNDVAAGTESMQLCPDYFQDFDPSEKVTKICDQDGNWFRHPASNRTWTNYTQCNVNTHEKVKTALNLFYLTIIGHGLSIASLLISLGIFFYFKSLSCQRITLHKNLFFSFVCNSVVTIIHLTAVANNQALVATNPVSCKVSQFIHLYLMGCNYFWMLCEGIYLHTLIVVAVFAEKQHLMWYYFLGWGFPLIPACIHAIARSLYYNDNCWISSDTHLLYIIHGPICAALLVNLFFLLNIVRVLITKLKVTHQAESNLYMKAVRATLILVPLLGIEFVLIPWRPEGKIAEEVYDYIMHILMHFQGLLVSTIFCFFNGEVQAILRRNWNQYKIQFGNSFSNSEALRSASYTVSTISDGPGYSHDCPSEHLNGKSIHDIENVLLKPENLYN
T1 sequence (O60894 27-148): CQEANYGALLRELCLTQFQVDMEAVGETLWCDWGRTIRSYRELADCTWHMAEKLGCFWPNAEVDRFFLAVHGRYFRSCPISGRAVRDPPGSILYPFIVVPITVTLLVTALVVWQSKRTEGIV
Turning to `O=C(Nc1cc(C(F)(F)F)ccc1Cl)N[C@@H](CC(=O)N1CCC(N2Cc3ccccc3NC2=O)CC1)C(=O)N1CCC(N2CCCCC2)CC1` [Example 167], the IC50 was 100 to 1000 nM. For `O=C(N[C@@H](CC(=O)N1CCC(N2Cc3ccccc3NC2=O)CC1)C(=O)N1CCC(N2CCCCC2)CC1)c1ccccc1` [Example 110] the value was 100 to 1000 nM; for `CCC(CN1CCN(C(=O)C(Cc2ccc3[nH]ncc3c2)NC(=O)N2CCC(N3Cc4ccccc4NC3=O)CC2)CC1)C(C)C` (stereo not shown) [Example 40i], 10 to 100 nM. `O=C(Nc1ccc(Oc2ccccc2)cc1)N[C@@H](CC(=O)N1CCC(N2Cc3ccccc3NC2=O)CC1)C(=O)N1CCC(N2CCCCC2)CC1` [Example 146]: the IC50 was 10 to 100 nM. In the case of `CCCCCCCN1CCN(C(=O)C(Cc2ccc3[nH]ncc3c2)NC(=O)N2CCC(N3Cc4ccccc4NC3=O)CC2)CC1` (stereo not shown) [Example 40b] it was 10 to 100 nM; in that of `O=C(NC(Cc1ccc(=O)[nH]c1)C(=O)N1CCC(N2CCCCC2)CC1)N1CCC(N2Cc3ccccc3NC2=O)CC1` (racemic) [Example 60, (±)-4-(2-Oxo-1,4-dihydro-2H-quinazolin-3-yl)-piperidine-1-carboxylic acid[2-[1,4′]bipiperidinyl-1′-yl-2-oxo-1-(6-oxo-1,6-dihydro-pyridin-3-ylmethyl)-ethyl]-amide], 100 to 1000 nM. In the case of `O=C(C[C@H](Nc1ccncn1)C(=O)N1CCC(N2CCCCC2)CC1)N1CCC(N2Cc3ccccc3NC2=O)CC1` [Example 96, (L)-1-[1,4′]Bipiperidinyl-1′-yl-4-[4-(2-oxo-1,4-dihydro-2H-quinazolin-3-yl)-piperidin-1-yl]-2-(pyrimidin-4-ylamino)-butane-1,4-dione] it was over 1000 nM; in that of `CCc1ccc(NC(=O)N[C@@H](CC(=O)N2CCC(N3Cc4ccccc4NC3=O)CC2)C(=O)N2CCC(N3CCCCC3)CC2)cc1` [Example 190], 100 to 1000 nM; in that of `Cc1ccc(F)cc1NC(=O)N[C@@H](CC(=O)N1CCC(N2Cc3ccccc3NC2=O)CC1)C(=O)N1CCC(N2CCCCC2)CC1` [Example 195], 100 to 1000 nM. In the case of `O=C(Nc1ccc(Br)cc1)N[C@@H](CC(=O)N1CCC(N2Cc3ccccc3NC2=O)CC1)C(=O)N1CCC(N2CCCCC2)CC1` [Example 179] it was 100 to 1000 nM; in that of `O=C(N[C@@H](CC(=O)N1CCC(N2Cc3ccccc3NC2=O)CC1)C(=O)N1CCC(N2CCCCC2)CC1)c1ccc(Cl)c(Cl)c1` [Example 111], 100 to 1000 nM. For the molecule `COC(=O)C(CN1Cc2cn[nH]c2C(C)(C)C1)NC(=O)N1CCC(N2Cc3ccccc3NC2=O)CC1` (racemic) [Example 55, (±)-3-(7,7-Dimethyl-1,4,6,7-tetrahydro-pyrazolo[4,3-c]pyridin-5-yl)-2-{[4-(2-oxo-1,4-dihydro-2H-quinazolin-3-yl)-piperidine-1-carbonyl]-amino}-propionic acid methyl ester], the IC50 was 100 to 1000 nM.

With `O=C(N[C@@H](CC(=O)N1CCC(N2Cc3ccccc3NC2=O)CC1)C(=O)N1CCC(N2CCCCC2)CC1)Oc1ccc(F)cc1` [Example 131], the IC50 was in the range of 100 to 1000 nM.

As to `O=C(C[C@H](NCc1ccccn1)C(=O)N1CCC(N2CCCCC2)CC1)N1CCC(N2Cc3ccccc3NC2=O)CC1` [Example 93, (L)-1-[1,4′]Bipiperidinyl-1′-yl-2-((2′-pyridyl)-methyl-amino)-4-[4-(2-oxo-1,4-dihydro-2H-quinazolin-3-yl)-piperidin-1-yl]-butane-1,4-dione], the half-inhibitory concentration (IC50) lay in the range of 100 to 1000 nM. For `COc1ccccc1NC(=O)N[C@@H](CC(=O)N1CCC(N2Cc3ccccc3NC2=O)CC1)C(=O)N1CCC(N2CCCCC2)CC1` [Example 149] the value was 10 to 100 nM; for `O=C(NCCc1cccs1)N[C@@H](CC(=O)N1CCC(N2Cc3ccccc3NC2=O)CC1)C(=O)N1CCC(N2CCCCC2)CC1` [Example 169], 100 to 1000 nM. For `O=C(Cc1cccs1)N[C@@H](CC(=O)N1CCC(N2Cc3ccccc3NC2=O)CC1)C(=O)N1CCC(N2CCCCC2)CC1` [Example 117] the value was 100 to 1000 nM; for `O=C(N[C@@H](CC(=O)N1CCC(N2Cc3ccccc3NC2=O)CC1)C(=O)N1CCC(N2CCCCC2)CC1)Oc1ccc(Br)cc1` [Example 133], 100 to 1000 nM. For `Cc1cc(CC(NC(=O)N2CCC(N3Cc4ccccc4NC3=O)CC2)C(=O)OC2CCCCC2)cc2cn[nH]c12` (stereo not shown) [Example 41a, 3-(7-Methyl-1H-indazol-5-yl)-2-{[4-(2-oxo-1,4-dihydro-2H-quinazolin-3-yl)-piperidine-1-carbonyl]-amino}-propionic acid cyclohexyl ester] the value was 10 to 100 nM; for `Cc1cccc(CN[C@@H](CC(=O)N2CCC(N3Cc4ccccc4NC3=O)CC2)C(=O)N2CCC(N3CCCCC3)CC2)c1` [Example 95, (L)-1-[1,4′]Bipiperidinyl-1′-yl-2-((3′-methyl-phenyll)-methyl-amino)-4-[4-(2-oxo-1,4-dihydro-2H-quinazolin-3-yl)-piperidin-1-yl]-butane-1,4-dione], 100 to 1000 nM; for `O=C(N[C@@H](CC(=O)N1CCC(N2Cc3ccccc3NC2=O)CC1)C(=O)N1CCC(N2CCCCC2)CC1)[C@@H]1C[C@H]1c1ccccc1` [Example 104], 100 to 1000 nM. In the case of `COC(=O)C(Cc1cc(Cl)c2[nH]ncc2c1)NC(=O)N1CCC(N2Cc3ccccc3NC2=O)CC1` (racemic) [Example 42, (±)-3-(7-Chloro-1H-indazol-5-yl)-2-{[4-(2-oxo-1,4-dihydro-2H-quinazolin-3-yl)-piperidine-1-carbonyl]-amino}-propionic acid methyl ester], the IC50 fell in the range of 100 to 1000 nM. On to `CCOC(=O)C(C)NC(=O)N[C@@H](CC(=O)N1CCC(N2Cc3ccccc3NC2=O)CC1)C(=O)N1CCC(N2CCCCC2)CC1` (stereo partly shown) [Example 170], for which the IC50 was in the range of 100 to 1000 nM. In the case of `O=C(C[C@H](NC1CCC(O)CC1)C(=O)N1CCC(N2CCCCC2)CC1)N1CCC(N2Cc3ccccc3NC2=O)CC1` (stereo partly shown) [Example 97, (L)-1-[1,4′]Bipiperidinyl-1′-yl-2-(4-hydroxy-cyclohexylamino)-4-[4-(2-oxo-1,4-dihydro-2H-quinazolin-3-yl)-piperidin-1-yl]-butane-1,4-dione] it was over 1000 nM; in that of `Cc1ccc(C)c(NC(=O)N[C@@H](CC(=O)N2CCC(N3Cc4ccccc4NC3=O)CC2)C(=O)N2CCC(N3CCCCC3)CC2)c1` [Example 157], 100 to 1000 nM; in that of `O=C(C[C@H](Nc1ccc2[nH]ncc2c1)C(=O)N1CCC(N2CCCCC2)CC1)N1CCC(N2Cc3ccccc3NC2=O)CC1` (racemic) [Example 201, (±)-1-[1,4′]Bipiperidinyl-1′-yl-2-(1H-indazol-5-ylamino)-4-[4-(2-oxo-1,4-dihydro-2H-quinazolin-3-yl)-piperidin-1-yl]-butane-1,4-dione], 100 to 1000 nM. In the case of `O=C(Nc1ccccc1-c1ccccc1)N[C@@H](CC(=O)N1CCC(N2Cc3ccccc3NC2=O)CC1)C(=O)N1CCC(N2CCCCC2)CC1` [Example 197] it was 100 to 1000 nM. Take `COc1ccc(OC(=O)N[C@@H](CC(=O)N2CCC(N3Cc4ccccc4NC3=O)CC2)C(=O)N2CCC(N3CCCCC3)CC2)cc1` [Example 134]: the IC50 is 100 to 1000 nM. Regarding `O=C(N[C@@H](CC(=O)N1CCC(N2Cc3ccccc3NC2=O)CC1)C(=O)N1CCC(N2CCCCC2)CC1)c1ccc(Br)cc1` [Example 119], the IC50 fell in the range of 100 to 1000 nM.

Take `Cc1cc(CC(NC(=O)N2CCC(N3Cc4ccccc4NC3=O)CC2)C(=O)OC2CCC(c3ccccc3)CC2)cc2cn[nH]c12` (stereo not shown) [Example 41d, 3-(7-Methyl-1H-indazol-5-yl)-2-{[4-(2-oxo-1,4-dihydro-2H-quinazolin-3-yl)-piperidine-1-carbonyl]-amino}-propionic acid 4-phenyl-cyclohexyl ester]: the half-inhibitory concentration (IC50) fell in the range of 10 to 100 nM.

For the molecule `O=C(Nc1ccc(Cl)cc1)N[C@@H](CC(=O)N1CCC(N2Cc3ccccc3NC2=O)CC1)C(=O)N1CCC(N2CCCCC2)CC1` [Example 140], the IC50 is 10 to 100 nM. `O=C(Cc1ccc(Cl)cc1)N[C@@H](CC(=O)N1CCC(N2Cc3ccccc3NC2=O)CC1)C(=O)N1CCC(N2CCCCC2)CC1` [Example 127]: the IC50 lay within 100 to 1000 nM. Consider `Cc1cc(CC(NC(=O)N2CCC(N3Cc4ccccc4NC3=O)CC2)C(=O)OC2CCN(C)CC2)cc2cn[nH]c12` (stereo not shown) [Example 41c, 3-(7-Methyl-1H-indazol-5-yl)-2-{[4-(2-oxo-1,4-dihydro-2H-quinazolin-3-yl)-piperidine-1-carbonyl]-amino}-propionic acid 1-methyl-piperidin-4-yl ester], for which the IC50 was under 10 nM. In the case of `Cc1cc(C)c(NC(=O)N[C@@H](CC(=O)N2CCC(N3Cc4ccccc4NC3=O)CC2)C(=O)N2CCC(N3CCCCC3)CC2)cc1C` [Example 139] it was 100 to 1000 nM; in that of `O=C(Nc1ccccc1OC(F)(F)F)N[C@@H](CC(=O)N1CCC(N2Cc3ccccc3NC2=O)CC1)C(=O)N1CCC(N2CCCCC2)CC1` [Example 200], 10 to 100 nM. For `O=C(Nc1cccc(Cl)c1Cl)N[C@@H](CC(=O)N1CCC(N2Cc3ccccc3NC2=O)CC1)C(=O)N1CCC(N2CCCCC2)CC1` [Example 148] the value was 10 to 100 nM. In the case of `O=C(N[C@@H](CC(=O)N1CCC(N2Cc3ccccc3NC2=O)CC1)C(=O)N1CCC(N2CCCCC2)CC1)Oc1ccccc1` [Example 130] it was 100 to 1000 nM. Regarding `COC(=O)C(CC(=O)N1CCC2(CC1)OC(=O)Nc1ccccc12)Cc1cc(C)c2[nH]ncc2c1` (racemic) [Example 66, (±)-2-(7-Methyl-1H-indazol-5-ylmethyl)-4-oxo-4-[1′,2′-dihydro-2′-oxospiro-[4H-3′,1-benzoxazine-4,4′-piperidinyl]-butyric acid methyl ester], the IC50 was in the range of 100 to 1000 nM. `O=C(NC(Cn1ccc(OCc2ccccc2)cc1=O)C(=O)N1CCC(N2CCCCC2)CC1)N1CCC(N2Cc3ccccc3NC2=O)CC1` (racemic) [Example 51, (±)-4-(2-Oxo-1,4-dihydro-2H-quinazolin-3-yl)-piperidine-1-carboxylic acid[1-(4-benzyloxy-2-oxo-2H pyridin-1-ylmethyl)-2-[1,4′]bipiperidinyl-1′-yl-2-oxo-ethyl]-amide]: the IC50 was over 1000 nM.

In the case of `C[C@@H](NC(=O)N[C@@H](CC(=O)N1CCC(N2Cc3ccccc3NC2=O)CC1)C(=O)N1CCC(N2CCCCC2)CC1)c1ccccc1` [Example 198], the IC50 fell in the range of 100 to 1000 nM.
